Legend:
[1] = test system: patients 65 years of age and older with major depression; experiment: 8-week double-blind comparison of paroxetine and mirtazapine: Hamilton Depression Rating Scale (HDRS-17, HDRS-21); format: in vivo, human; conditions: for HDRS-21 scores, ε4 carriers compared with those without ε4: treatment x genotype interaction p=0.033; for HDRS-17 scores, ε4 carriers compared with those without ε4: treatment x genotype interaction p=0.036; for antidepressant response / onset of action, mirtazapine vs paroxetine / early antidepressant response, ε4 carriers compared with non-ε4 carriers: early weeks of treatment, summary of the example
From the text: Hamilton Depression Rating Scale (HDRS; 17 and 21 item versions of a structured interview) (Hamilton, M., J. Neurol. Neurosurg. Psychiatr. 23:56-62, 1960; Hamilton, M., Br. J. Soc. Clin. Psychol. 6:278-296,1967). […] In other words, a lower rating in the HDRS scale signifies less depression. In contrast, HDRS remitters, which are those patients showing the least depression, are defined as subjects who have an HDRS-17 score of less than 7 at a post-baseline visit.
(§1) All statistical analyses were performed using the SAS software package (available from SAS Institute). For clinical measures of depression (HDRS-21, HDRS-17, GDS, and CGI), analyses of covariance were performed with baseline values as the covariate, and apoE genotype ([…]4 allele carrier vs. non-carrier) and medication (mirtazapine, paroxetine) as the predictors. For remitter and responder analyses of clinical measures of depression, Cochran-Mantel-Haenszel statistics were used. For comparison of medication and genotype groups on baseline demographic measures, two-way analyses of variance were used.

[2] = test system: patients 65 years of age and older with major depression; experiment: 8-week double-blind comparison of paroxetine and mirtazapine: Geriatric Depression Scale (GDS); format: in vivo, human; conditions: for GDS scores, ε4 carriers compared with noncarriers / GDS scores, ε4 carriers compared with those without ε4 / 50% reduction in GDS score (GDS 50% responders), ε4 carriers compared with those without ε4: day 14; for GDS scores, ε4 carriers compared with noncarriers: mirtazapine p=0.025; for GDS scores, ε4 carriers compared with those without ε4 / 50% reduction in GDS score (GDS 50% responders), ε4 carriers compared with those without ε4 / 50% reduction in GDS score, ε4 carriers compared with noncarriers: full cohort; for GDS scores, ε4 carriers compared with those without ε4: mirtazapine p=0.021; for 50% reduction in GDS score (GDS 50% responders), ε4 carriers compared with those without ε4: mirtazapine p=0.046; for 50% reduction in GDS score, ε4 carriers compared with noncarriers: mirtazapine p<0.005
Description: Geriatric Depression Scale (GDS) (Yesavage, J.A. et al., J. Psychiatr. Res. 17:37-49, 1983), a self-rating scale developed specifically for rating depression in the elderly. In the GDS, a lower rating signifies less depression. GDS 50% responders are defined as subjects with a decrease on a post-baseline assessment of at least 50% as compared to baseline.
as §1

[3] = test system: patients 65 years of age and older with major depression; experiment: 8-week double-blind comparison of paroxetine and mirtazapine: Clinical Global Impression Scale (CGI); format: in vivo, human; conditions: day 14; for CGI scores, ε4 carriers compared with noncarriers: mirtazapine p=0.028; for CGI scores, ε4 carriers compared with those without ε4: treatment x genotype interaction p=0.029
From the text: Clinical Global Impression Scale (CGI) (Guy, W., ECDEU Assessment Manual for Psychopharmacology, DHEW Publication No. (ADM) 76-338, rev. 1976). The CGI scale is a global 7-point rating of the severity of the illness taking into account the preceding week (CGI-Severity) and a global 7-point rating of the clinical status of the subject since baseline (CGI-Change). A responder is defined as being “Much Improved” or “Very Much Improved”— having a CGI score of […] 2 according to CGI-Change. Thus, a higher CGI-Severity score corresponds to more severe depression whereas a higher CGI-Change score corresponds to lessened depression, or an improvement in alleviating the symptoms of depression.
as §1

[4] = test system: patients 65 years of age and older with major depression; experiment: 8-week double-blind comparison of paroxetine and mirtazapine: Mini Mental State Examination (MMSE), cognition; format: in vivo, human; conditions: for mean MMSE score, ε4 carriers compared with noncarriers: week 8, full cohort, paroxetine p=0.018
Description: (§2) A multi-center, randomized, double-blind, 8-week comparison of paroxetine and mirtazapine was performed for 246 nondemented, cognitively intact patients 65 years of age and older with major depression. All patients were genotyped at the apoE locus as discussed further below.
(§3) After an initial evaluation period, the mirtazapine patients started with a 15 mg dose per day. After two weeks of treatment (Day 14), patients' dosages were raised to 30 mg per day. […] Subjects who rate “Much Improved” or “Very Much Improved” on the CGI Scale I continued on the same dose they were receiving during the previous week.
(§4) For paroxetine, the dosing system was the same, except that the starting dosage was 20 mg per day, raised to 30 mg per day, and to a maximum of 40 mg per day.
Mini Mental State Examination (MMSE) (Folstein, M.F. et al., J. Psychiatr. Res. 12:189-198, 1975). This test represents a brief standardized method to grade cognitive mental status. The test assesses orientation, attention, immediate and short-term recall, language, and the ability to follow verbal and written commands. The lower the score, the lower the cognitive mental status.
as §1

[5] = 8-week comparison of paroxetine and mirtazapine: plasma drug concentrations by apoE genotype
Description: as §2, §3, §4
(§5) To screen patients for the gene, genomic DNA was extracted from EDTA-treated whole blood using the Puregene DNA extraction kit (available from Gentra Systems). ApoE genotypes were determined using restriction isotyping (restriction enzyme isoform genotyping) according to the protocol of Hixson and Vernier (J. Lipid Res. 31:545-548,1990), as set forth in Murphy, G.E. et al., Am. J. Psychiatr. 154:603-608, 1997. Genotypes were determined by two observers blind as to the clinical or neuropathological diagnosis.

[6] = 8-week comparison of paroxetine and mirtazapine: discontinuation due to adverse events by apoE genotype
Description: as §2, §3, §4, §5

[7] = day 14, Caucasian patients, p=0.006
[8] = day 14, patients carrying an apoE ε4 allele
[9] = day 14, patients with an apoE ε4 allele, remitter = HDRS-17 score less than 7
[10] = day 14, patients without an apoE ε4 allele

SMILES	HDRS scores, ε4 carriers compared with noncarriers ([1]; day 14, Caucasian patients)	HDRS-21 scores, ε4 carriers compared with those without ε4 ([1]; day 14, full cohort)	HDRS-17 scores, ε4 carriers compared with those without ε4 ([1]; day 14, full cohort)	HDRS-21 50% responders [1, 8]	HDRS-17 remitters [1, 9]	HDRS-21 50% responders [1, 10] [%]	antidepressant response / onset of action, mirtazapine vs paroxetine [1]	early antidepressant response, ε4 carriers compared with non-ε4 carriers [1]	GDS scores, ε4 carriers compared with noncarriers ([2]; Caucasian patients)	GDS scores, ε4 carriers compared with those without ε4 [2]	50% reduction in GDS score (GDS 50% responders), ε4 carriers compared with those without ε4 [2]	50% reduction in GDS score, ε4 carriers compared with noncarriers ([2]; day 28)	CGI scores, ε4 carriers compared with noncarriers ([3]; Caucasian patients)	CGI scores, ε4 carriers compared with those without ε4 ([3]; full cohort)	mean MMSE score, ε4 carriers compared with noncarriers [4]	number of patients who discontinued due to adverse events, ε4 carriers vs noncarriers ([6]; full cohort)	further results
CN1CCN2c3ncccc3Cc3ccccc3C2C1 (stereo not shown) [mirtazapine, 1,2,3,4,10,14b-hexahydro-2-methylpyrazino [2,1a]pyrido[2,3-c]benzazepine]	greater improvement	significantly lower scores	significantly lower scores	48%	28%	29.4	higher rate of antidepressant response	significantly stronger	significantly lower	large decrease in GDS scores	significantly more likely	significantly more	significantly better	significantly lower scores	no effect	no significant differences	improvement in HDRS-17 scores, mirtazapine-treated vs paroxetine-treated patients ([1]; day 7, full cohort): significantly greater improvement; mean HDRS-17 scores, mirtazapine vs paroxetine [1, 7]: significantly lower; mean HDRS-21 scores, mirtazapine vs paroxetine [1, 7]: significantly lower; percentage of ε4 carriers responding to medication treatment, mirtazapine vs paroxetine ([1]; day 14, Caucasian subjects, each of 50% reduction in HDRS-17, HDRS-21, HDRS-17 remission, 50% reduction in GDS): greater; improvement in HDRS-17 scores, mirtazapine-treated vs paroxetine-treated patients ([1]; day 14, full cohort): Significantly greater improvement; improvement in HDRS-21 scores, mirtazapine-treated vs paroxetine-treated patients ([1]; day 14, full cohort): Significantly greater improvement; HDRS-17 50% responders, ε4 carriers compared with those without ε4 ([1]; day 14, p=0.049): significantly more; HDRS-17 remitters [1, 10]: 7.1%; patients showing a 50% reduction in GDS score ([2]; day 28, Caucasian patients, noncarriers): 16.9%; patients showing a 50% reduction in GDS score ([2]; day 28, Caucasian patients, ε4 carriers): 41.7%; CGI scores, mirtazapine vs paroxetine treated subjects ([3]; Caucasian patients, p=0.037): significantly better; improvement in CGI scores, mirtazapine-treated vs paroxetine-treated patients ([3]; full cohort): Significantly greater improvement; plasma drug concentrations, ε4 carriers vs non-ε4 carriers ([5]; in vivo): no differences; number of patients who discontinued due to adverse events, ε4 carriers vs noncarriers ([6]; in vivo): no significant differences
Fc1ccc([C@@H]2CCNC[C@H]2COc2ccc3c(c2)OCO3)cc1 [paroxetine]	less improvement	higher scores	higher scores	none	none	23.3	slower onset of anti-depressant action	particularly slow to respond	no effect	no significant difference	no difference	no effect of apoE genotype	no differences	higher scores	significantly lower	no significant differences	patients showing a 50% decrease in HDRS-17 score over baseline (HDRS-17 50% responders) ([1]; day 14, patients with an apoE ε4 allele): none; effect of the ε4 genotype on the number of patients showing a 50% reduction in GDS ([2]; day 28, Caucasian patients): no significant effect; MMSE score, ε4 carriers compared with those without ε4 ([4]; Caucasian subjects, trend, p=0.05): lower MMSE score; plasma drug concentrations, ε4 carriers vs non-ε4 carriers ([5]; Caucasian subjects): no differences; plasma drug concentrations, ε4 carriers vs non-ε4 carriers ([5]; full cohort): no differences; number of patients who discontinued due to adverse events, ε4 carriers vs noncarriers ([6]; Caucasian subjects): no significant differences

Reference: patent US20030105082A1, “Methods for improving the therapeutic response of humans having major depression and carrying the gene for apolipoprotein E4” (priority 2001, published 2003)
